Source: patent US11999699B2, “Substituted pyrazole amides” (GRUENENTHAL GMBH, priority 2021, dated 2024)

These compounds were tested against T1, human NaV1.8 (Homo sapiens, UniProt Q9Y5Y9) (assay: Electrophysiology: automated whole-cell voltage-clamp (patch clamp, Qube384) recordings of sodium currents in HEK-NaV1.8 cells). Settings: potency data either taken from inactivated or resting state, read-out: Potency category (human NaV1.8 IC50).
T1 construct: The following NaV1.8 recombinant cell line was used for recordings: HEK-NaV1.8 (NM 006514.1); expressed in transfected cells; host or cells: HEK (recombinant cell line HEK-NaV1.8)
T1 sequence (Q9Y5Y9 whole entry): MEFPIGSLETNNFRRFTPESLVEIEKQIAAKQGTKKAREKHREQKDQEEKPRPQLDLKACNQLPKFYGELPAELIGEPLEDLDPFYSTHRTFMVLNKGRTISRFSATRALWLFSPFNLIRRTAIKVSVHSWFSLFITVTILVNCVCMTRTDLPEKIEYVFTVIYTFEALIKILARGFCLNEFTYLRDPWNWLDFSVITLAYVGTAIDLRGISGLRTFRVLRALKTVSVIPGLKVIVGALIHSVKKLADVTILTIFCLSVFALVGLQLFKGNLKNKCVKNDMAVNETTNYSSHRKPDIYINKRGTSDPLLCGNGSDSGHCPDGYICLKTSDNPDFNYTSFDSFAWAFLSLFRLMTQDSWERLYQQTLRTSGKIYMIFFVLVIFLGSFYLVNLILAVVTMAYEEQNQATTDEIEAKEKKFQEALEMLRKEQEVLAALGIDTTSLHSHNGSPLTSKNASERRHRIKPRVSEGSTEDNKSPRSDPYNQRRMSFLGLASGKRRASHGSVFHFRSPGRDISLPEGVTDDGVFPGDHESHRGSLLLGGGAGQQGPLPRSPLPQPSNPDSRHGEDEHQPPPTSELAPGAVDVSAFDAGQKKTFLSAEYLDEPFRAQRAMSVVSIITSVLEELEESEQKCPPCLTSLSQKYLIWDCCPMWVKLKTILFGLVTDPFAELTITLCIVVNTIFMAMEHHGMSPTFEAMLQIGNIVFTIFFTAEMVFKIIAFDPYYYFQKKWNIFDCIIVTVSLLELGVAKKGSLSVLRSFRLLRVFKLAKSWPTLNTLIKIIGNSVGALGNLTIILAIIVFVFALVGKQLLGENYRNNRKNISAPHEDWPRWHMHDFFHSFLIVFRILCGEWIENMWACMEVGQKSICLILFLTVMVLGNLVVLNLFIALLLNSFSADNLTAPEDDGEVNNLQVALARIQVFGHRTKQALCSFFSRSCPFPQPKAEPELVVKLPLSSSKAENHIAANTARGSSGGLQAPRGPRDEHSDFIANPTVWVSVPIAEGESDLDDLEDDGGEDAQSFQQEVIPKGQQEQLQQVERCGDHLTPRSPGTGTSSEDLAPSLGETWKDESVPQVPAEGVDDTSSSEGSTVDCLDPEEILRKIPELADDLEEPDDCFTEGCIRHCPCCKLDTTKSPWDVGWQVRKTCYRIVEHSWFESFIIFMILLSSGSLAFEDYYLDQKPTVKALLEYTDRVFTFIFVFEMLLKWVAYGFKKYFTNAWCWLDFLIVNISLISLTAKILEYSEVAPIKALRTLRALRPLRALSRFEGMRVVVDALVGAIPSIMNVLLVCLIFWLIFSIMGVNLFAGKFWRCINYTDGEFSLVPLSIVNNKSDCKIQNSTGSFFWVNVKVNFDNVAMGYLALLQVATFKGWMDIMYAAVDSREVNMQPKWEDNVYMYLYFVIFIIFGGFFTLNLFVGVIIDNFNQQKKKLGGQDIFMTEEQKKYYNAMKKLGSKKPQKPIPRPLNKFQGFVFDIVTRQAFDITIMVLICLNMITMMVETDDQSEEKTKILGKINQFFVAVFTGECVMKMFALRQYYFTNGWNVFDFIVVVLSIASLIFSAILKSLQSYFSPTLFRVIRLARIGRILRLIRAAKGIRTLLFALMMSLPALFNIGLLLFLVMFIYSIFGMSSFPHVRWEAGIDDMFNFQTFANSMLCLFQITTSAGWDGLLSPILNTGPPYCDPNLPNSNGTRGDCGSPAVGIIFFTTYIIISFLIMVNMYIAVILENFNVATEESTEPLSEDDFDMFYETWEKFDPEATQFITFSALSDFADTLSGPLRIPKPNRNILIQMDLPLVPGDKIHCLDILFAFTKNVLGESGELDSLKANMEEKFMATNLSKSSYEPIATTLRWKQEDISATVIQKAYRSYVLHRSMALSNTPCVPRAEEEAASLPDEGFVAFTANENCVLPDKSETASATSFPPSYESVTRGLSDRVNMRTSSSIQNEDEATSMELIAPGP
T1 sequence (Q9NY72 23-215 partner): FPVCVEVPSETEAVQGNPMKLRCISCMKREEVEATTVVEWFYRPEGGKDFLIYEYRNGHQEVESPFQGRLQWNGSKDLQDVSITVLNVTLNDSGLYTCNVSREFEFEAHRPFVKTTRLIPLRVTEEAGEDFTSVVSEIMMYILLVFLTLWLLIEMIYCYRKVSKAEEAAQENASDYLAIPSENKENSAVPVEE
Format: cell-based
Protocol: Electrophysiology: Voltage-Clamp Recordings
The following NaV1.8 recombinant cell line was used for recordings: HEK-NaV1.8 (NM 006514.1) with in (NM 018400.3).
Sodium currents were measured using the patch clamp technique in the whole-cell configuration using the Qube384 (Sophion A/S, Copenhagen, Denmark) automated voltage clamp platform. “Multi hole” plates were used for the cell line expressing NaV1.8 while “single hole” plates were used for the recombinant cell lines expressing the other subtypes. Appropriate filters (for minimum seal resistance and minimum current size) and series resistance compensation (for high quality sodium channel recordings) were applied. Data was collected at ambient room temperature.
The recording extracellular solution contained (in mM): NaCl 145 mM, KCl 4 mM, CaCl2 2 mM, MgCl2 1 mM, HEPES 10 mM, Glucose 10 mM, pH 7.4 (NaOH). The intracellular recording solution contained (in mM): CsF 120 mM, CsCl 20 mM, NaCl 10 mM, EGTA 10 mM, HEPES 10 mM, pH 7.2 (CsOH). Currents were recorded at 25 kHz sampling frequency and filtered at 5 kHz. Series resistance compensation was applied at 65%.
Vehicle (VEH) is the control condition where cells are exposed to 0.3% DMSO without compound. All runs include VEH controls being exposed to the same voltage protocols to assess non-compound related phenomena such as run down and then used to isolate compound dependent effects on currents.
To check for state-dependence inhibition, the following voltage-sequence was applied every 20 seconds:
From a resting membrane potential of −120 mV, the first test pulse (P1; 20 ms to −10 mV) was applied to check for channels in the Resting State followed by a brief recovery (20 ms to −120 mV), then holding the membrane voltage to V112 (4 seconds at voltage to obtain half the channel at Rest and half Inactivated) with a subsequent second test pulse (P2; 20 ms to −10 mV) to check for channels in the Inactivated State, followed by another brief recovery (20 ms to −120 mV) and a final third test pulse (P3; 20 ms to −10 mV) to check for recovered channels.
To check for frequency-dependent inhibition, a 10 Hz protocol and a 20 Hz protocol were applied; namely,
From a resting membrane potential of −120 mV, 40-pulses (10 ms to −10 mV) was applied at 10 Hz (at 100 ms between pulses) and then at 20 Hz (at 50 ms between pulses).
Each parameter was recorded (P1, P2, P3, P40 from 10 Hz and P40 from 20 Hz) during a control period (lasting 5 minutes) when establishing the baseline and during compound period (lasting ˜12 minutes) when test compound (or vehicle) was applied. For each parameter, the value at the end of the compound period was normalized to the vehicle baseline; as follows
To adjust for any variance in the Na^+ current signal during the compound period (owing to cumulative inactivation independent of compound or shifts in biophysics over time), a dedicated segment of the recording wells in each 384 plate were dedicated to having only vehicle exposure. These vehicle-only recordings were used to correct for any apparent “run-up” or “run-down” in the experiment.
The adjusted inhibition was calculated as follows: […]
Percent inhibition was determined and IC50 values were calculated using a 4 parameter logistic model within XLFit Software (IDBS, Boston MA):
[formula] where A and B are the maximal and minimum inhibition respectively, C is the IC50 concentration and D is the (Hill) slope.
The potency data was either taken from inactivated or resting state.

Row | Compound | IC50
1 | NC(=O)c1cc(NC(=O)c2c(C(F)(F)F)c(C3CC3)nn2C[C@@H]2CCO[C@H]2C(F)(F)F)ccn1 (racemic) [SC-147c] | ≤ 100 nM
2 | CS(=O)(=O)c1cc(NC(=O)c2c(C(F)(F)F)c(C3CC3)nn2C[C@@H]2CCO[C@H]2C(F)(F)F)ccn1 (racemic) [SC-150c] | ≤ 100 nM
3 | NC(=O)c1cc(NC(=O)c2c(C(F)(F)F)c(OCC3CC3)nn2CC2CCC(F)(F)C2)ccn1 (racemic) [SC-157, 4-(3-(cyclopropylmethoxy)-1-((3,3-difluorocyclopentyl)methyl)-4-(trifluoromethyl)-1H-pyrazole-5-ca±oxamido)picolinamide] | ≤ 100 nM
4 | Cc1c(C(C)(F)F)nn(CC2CC(F)(F)CC2C(F)(F)F)c1C(=O)Nc1ccnc(C(N)=O)c1 (racemic) [SC-217, 4-(1-((4,4-difluoro-2-(trifluoromethyl)cyclopentyl)methyl)-3-(1,1-difluoroethyl)-4-methyl-1H-pyrazole-5-carboxamido)picolinamide] | ≤ 100 nM
5 | CS(=O)(=O)c1cc(NC(=O)c2c(C(F)(F)F)c(OC(F)F)nn2CC2CCC(F)(F)C2)ccn1 (racemic) [SC-293, 1-((3,3-difluorocyclopentyl)methyl)-3-(difluoromethoxy)-N-(2-(methylsulfonyl)pyridin-4-yl)-4-(trifluoromethyl)-1H-pyrazole-5-carboxamide] | ≤ 100 nM
6 | Cc1c(C(C)(F)F)nn(C[C@@H]2C[C@@H]2C(F)F)c1C(=O)Nc1ccnc(C(N)=O)c1 (relative stereo) [SC-206, 4-(3-(1,1-difluoroethyl)-1-((2-(difluoromethyl)cyclopropyl)methyl)-4-methyl-lH-pyrazole-5-carboxamido)picolinamide] | 100 to 1000 nM
7 | COCCOC[C@@H]1CCCC[C@@H]1Cn1nc(C(C)(F)F)c(C)c1C(=O)Nc1ccnc(C(N)=O)c1 (relative stereo) [SC-223, 4-(3-(1,1-difluoroethyl)-1-((2-((2-methoxyethoxy)methyl)cyclohexyl)methyl)-4-methyl-1H-pyrazole-5-ca±oxamido)picolinamide] | ≤ 100 nM
8 | Cc1c(C(F)(F)F)nn(CC2CCC(F)(F)C2)c1C(=O)Nc1ccnc(C(N)=O)c1 (single isomer, unassigned) [SC-118a] | ≤ 100 nM
9 | Cc1c(C(F)(F)F)nn(CC2CCC(F)(F)C2)c1C(=O)Nc1ccnc(C(N)=O)c1 (single isomer, unassigned) [SC-118b] | ≤ 100 nM
10 | NC(=O)c1cc(NC(=O)c2c(C(F)(F)F)c(C3CC3)nn2CC2CCC(F)(F)C2)ccn1 (single isomer, unassigned) [SC-129a] | ≤ 100 nM
11 | NC(=O)c1cc(NC(=O)c2c(C(F)(F)F)c(C3CC3)nn2CC2CCC(F)(F)C2)ccn1 (single isomer, unassigned) [SC-129b] | ≤ 100 nM
12 | NC(=O)c1cc(NC(=O)c2c(C(F)(F)F)c(C3CC3)nn2CC2CCCOC2)ccn1 (single isomer, unassigned) [SC-145a, 4-(3-Cyclopropyl-1-((tetrahydro-2H-pyran-3-yl)methyl)-4-(trifluoromethyl)-1H-pyrazole-5-carboxamido)picolinamide] | ≤ 100 nM
13 | NC(=O)c1cc(NC(=O)c2c(C(F)(F)F)c(C3CC3)nn2CC2CCCOC2)ccn1 (single isomer, unassigned) [SC-145b, 4-(3-Cyclopropyl-1-((tetrahydro-2H-pyran-3-yl)methyl)-4-(trifluoromethyl)-1H-pyrazole-5-carboxamido)picolinamide] | ≤ 100 nM
14 | NC(=O)c1cc(NC(=O)c2c(C(F)(F)F)c(C3CC3)nn2C[C@@H]2CCO[C@@H]2C(F)(F)F)ccn1 (single isomer, unassigned) [SC-147a] | ≤ 100 nM
15 | NC(=O)c1cc(NC(=O)c2c(C(F)(F)F)c(C3CC3)nn2C[C@@H]2CCO[C@@H]2C(F)(F)F)ccn1 (single isomer, unassigned) [SC-147b] | ≤ 100 nM
16 | NC(=O)c1cc(NC(=O)c2c(C(F)(F)F)c(C3CC3)nn2C[C@@H]2CO[C@H](C(F)(F)F)C2)ccn1 (single isomer, unassigned) [SC-148a] | ≤ 100 nM
17 | NC(=O)c1cc(NC(=O)c2c(C(F)(F)F)c(C3CC3)nn2C[C@@H]2CO[C@H](C(F)(F)F)C2)ccn1 (single isomer, unassigned) [SC-148b] | ≤ 100 nM

Row | Compound | IC50
18 | CC(F)(F)c1nn(CC2CCC(F)(F)C2)c(C(=O)Nc2ccnc(C(N)=O)c2)c1Cl (single isomer, unassigned) [SC-149a] | ≤ 100 nM
19 | CC(F)(F)c1nn(CC2CCC(F)(F)C2)c(C(=O)Nc2ccnc(C(N)=O)c2)c1Cl (single isomer, unassigned) [SC-149b] | ≤ 100 nM
20 | CS(=O)(=O)c1cc(NC(=O)c2c(C(F)(F)F)c(C3CC3)nn2C[C@@H]2CCO[C@@H]2C(F)(F)F)ccn1 (single isomer, unassigned) [SC-150a] | ≤ 100 nM
21 | CS(=O)(=O)c1cc(NC(=O)c2c(C(F)(F)F)c(C3CC3)nn2C[C@@H]2CCO[C@@H]2C(F)(F)F)ccn1 (single isomer, unassigned) [SC-150b] | ≤ 100 nM
22 | NC(=O)c1cc(NC(=O)c2c(C(F)(F)F)c(C3CC3)nn2CC2CCC2(F)F)ccn1 (single isomer, unassigned) [SC-154a, 4-(3-cyclopropyl-1-((2,2-difluorocyclobutyl)methyl)-4-(trifluoromethyl)-1H-pyrazole-5-carboxamido)picolinamide] | ≤ 100 nM
23 | NC(=O)c1cc(NC(=O)c2c(C(F)(F)F)c(C3CC3)nn2CC2CCC2(F)F)ccn1 (single isomer, unassigned) [SC-154b, 4-(3-cyclopropyl-1-((2,2-difluorocyclobutyl)methyl)-4-(trifluoromethyl)-1H-pyrazole-5-carboxamido)picolinamide] | ≤ 100 nM
24 | NC(=O)c1cc(NC(=O)c2c(Cl)c(C(F)(F)F)nn2CC2CCC(F)(F)C2)ccn1 (single isomer, unassigned) [SC-160a] | ≤ 100 nM
25 | NC(=O)c1cc(NC(=O)c2c(Cl)c(C(F)(F)F)nn2CC2CCC(F)(F)C2)ccn1 (single isomer, unassigned) [SC-160b] | ≤ 100 nM
26 | Cc1c(C(C)(F)F)nn(CC2C[C@H]2C(F)(F)F)c1C(=O)Nc1ccnc(C(N)=O)c1 (single isomer, unassigned) [SC-204a] | ≤ 100 nM
27 | Cc1c(C(C)(F)F)nn(C[C@H]2C[C@@H]2C(F)(F)F)c1C(=O)Nc1ccnc(C(N)=O)c1 (single isomer, unassigned) [SC-204b] | ≤ 100 nM
28 | Cc1c(C(C)(F)F)nn(CC2(C)CCC(F)(F)C2)c1C(=O)Nc1ccnc(S(N)(=O)=O)c1 (single isomer, unassigned) [SC-212a] | ≤ 100 nM
29 | Cc1c(C(C)(F)F)nn(C[C@@]2(C)CCC(F)(F)C2)c1C(=O)Nc1ccnc(S(N)(=O)=O)c1 (single isomer, unassigned) [SC-212b] | ≤ 100 nM
30 | Cc1c(C(C)(F)F)nn(CC2(C)CCC(F)(F)C2)c1C(=O)Nc1ccnc(C(N)=O)c1 (single isomer, unassigned) [SC-214a] | ≤ 100 nM
31 | Cc1c(C(C)(F)F)nn(CC2(C)CCC(F)(F)C2)c1C(=O)Nc1ccnc(C(N)=O)c1 (single isomer, unassigned) [SC-214b] | ≤ 100 nM
32 | NC(=O)c1cc(NC(=O)c2c(C(F)(F)F)c(C3CC3)nn2CC2CC(OC(F)(F)F)C2)ccn1 (single isomer, unassigned) [SC-219a] | ≤ 100 nM
33 | NC(=O)c1cc(NC(=O)c2c(C(F)(F)F)c(C3CC3)nn2CC2CC(OC(F)(F)F)C2)ccn1 (single isomer, unassigned) [SC-219b] | ≤ 100 nM
34 | NC(=O)c1cc(NC(=O)c2c(C(F)(F)F)c(C3CC3)nn2CC2CC(C(F)F)C2)ccn1 (single isomer, unassigned) [SC-221a, 4-(3-cyclopropyl-1-((3-(difluoromethyl)cyclobutyl)methyl)-4-(trifluoromethyl)-1H-pyrazole-5-carboxamido)picolinamide] | ≤ 100 nM
